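96-well plates; 48 h exposure; 5 concentrations. Endpoints by linear interpolation between flanking doses. Not reached: highest tested concentration assigned. TGI: concentration producing complete growth inhibition.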
What was measured:
Assay in all cases: NCI-60 cell line screen, 48 h
[1] = system: 786-0 renal
[2] = system: A498 renal
[3] = system: ACHN renal
[4] = system: CAKI-1 renal
[5] = system: CCRF-CEM leukemia
[6] = system: COLO 205 colon
[7] = system: DLD-1 colon
[8] = system: DMS 273 small cell lung
[9] = system: EKVX NSCLC
[10] = system: HCC-2998 colon
[11] = system: HCT-116 colon
[12] = system: HCT-15 colon
[13] = system: HL-60(TB) leukemia
[14] = system: HOP-18 NSCLC
[15] = system: HOP-62 NSCLC
[16] = system: HOP-92 NSCLC
[17] = system: HT29 colon
[18] = system: IGROV1 ovarian
[19] = system: K-562 leukemia
[20] = system: KM12 colon
[21] = system: KM20L2 colon
[22] = system: LXFL 529 NSCLC
[23] = system: M14 melanoma
[24] = system: M19-MEL melanoma
[25] = system: MALME-3M melanoma
[26] = system: MOLT-4 leukemia
[27] = system: NCI-H226 lung
[28] = system: NCI-H23 lung
[29] = system: NCI-H460 lung
[30] = system: NCI-H522 lung
[31] = system: OVCAR-3 ovarian
[32] = system: OVCAR-4 ovarian
[33] = system: OVCAR-5 ovarian
[34] = system: OVCAR-8 ovarian
[35] = system: RPMI-8226 leukemia
[36] = system: SF-268 CNS
[37] = system: SF-295 CNS
[38] = system: SF-539 CNS
[39] = system: SK-MEL-28 melanoma
[40] = system: SK-MEL-5 melanoma
[41] = system: SK-OV-3 ovarian
[42] = system: SN12C renal
[43] = system: SNB-19 CNS
[44] = system: SNB-75 CNS
[45] = system: SNB-78 CNS
[46] = system: SW-620 colon
[47] = system: TK-10 renal
[48] = system: U251 CNS
[49] = system: UACC-257 melanoma
[50] = system: UACC-62 melanoma
[51] = system: UO-31 renal
[52] = system: A549 NSCLC
[53] = system: DMS 114 small cell lung
[54] = system: LOX IMVI melanoma
[55] = system: RXF 393 renal
[56] = system: SK-MEL-2 melanoma
[57] = system: SR leukemia

Structure (SMILES): CCc1cccc(C)c1NC(=O)CCc1n[nH]c(=S)o1
- TGI [1]: > 100 µM
- TGI [2]: > 100 µM
- TGI [3]: > 100 µM
- TGI [4]: > 100 µM
- TGI [5]: > 100 µM
- TGI [6]: > 100 µM
- TGI [7]: > 100 µM
- TGI [8]: > 100 µM
- TGI [9]: > 100 µM
- TGI [10]: > 100 µM
- TGI [11]: 31.1 µM
- TGI [12]: > 100 µM
- TGI [13]: > 100 µM
- TGI [14]: > 100 µM
- TGI [15]: > 100 µM
- TGI [16]: > 100 µM
- TGI [17]: > 100 µM
- TGI [18]: > 100 µM
- TGI [19]: > 100 µM
- TGI [20]: > 100 µM
- TGI [21]: > 100 µM
- TGI [22]: > 100 µM
- TGI [23]: > 100 µM
- TGI [24]: > 100 µM
- TGI [25]: > 100 µM
- TGI [26]: > 100 µM
- TGI [27]: > 100 µM
- TGI [28]: > 100 µM
- TGI [29]: > 100 µM
- TGI [30]: > 100 µM
- TGI [31]: > 100 µM
- TGI [32]: > 100 µM
- TGI [33]: > 100 µM
- TGI [34]: > 100 µM
- TGI [35]: 58.2 µM
- TGI [36]: > 100 µM
- TGI [37]: > 100 µM
- TGI [38]: > 100 µM
- TGI [39]: > 100 µM
- TGI [40]: > 100 µM
- TGI [41]: > 100 µM
- TGI [42]: > 100 µM
- TGI [43]: > 100 µM
- TGI [44]: > 100 µM
- TGI [45]: > 100 µM
- TGI [46]: 28 µM
- TGI [47]: > 100 µM
- TGI [48]: > 100 µM
- TGI [49]: > 100 µM
- TGI [50]: > 100 µM
- TGI [51]: > 100 µM

Structure (SMILES): CC1CCC2(OC1)OC1CC3C4CCC5CC(O)CCC5(C)C4CC(=O)OC3(C)C1C2C (stereo unspecified)
- TGI [1]: > 100 µM
- TGI [2]: > 100 µM
- TGI [52]: > 100 µM
- TGI [3]: > 100 µM
- TGI [4]: > 100 µM
- TGI [5]: > 100 µM
- TGI [6]: > 100 µM
- TGI [7]: > 100 µM
- TGI [53]: > 100 µM
- TGI [8]: > 100 µM
- TGI [9]: > 100 µM
- TGI [10]: > 100 µM
- TGI [11]: > 100 µM
- TGI [12]: > 100 µM
- TGI [13]: > 100 µM
- TGI [14]: > 100 µM
- TGI [15]: > 100 µM
- TGI [16]: > 100 µM
- TGI [17]: > 100 µM
- TGI [18]: > 100 µM
- TGI [19]: > 100 µM
- TGI [20]: > 100 µM
- TGI [21]: > 100 µM
- TGI [54]: > 100 µM
- TGI [22]: > 100 µM
- TGI [23]: > 100 µM
- TGI [24]: > 100 µM
- TGI [25]: > 100 µM
- TGI [26]: > 100 µM
- TGI [28]: > 100 µM
- TGI [29]: > 100 µM
- TGI [30]: > 100 µM
- TGI [31]: > 100 µM
- TGI [32]: > 100 µM
- TGI [33]: > 100 µM
- TGI [34]: > 100 µM
- TGI [35]: > 100 µM
- TGI [55]: > 100 µM
- TGI [36]: > 100 µM
- TGI [37]: > 100 µM
- TGI [38]: > 100 µM
- TGI [56]: > 100 µM
- TGI [39]: > 100 µM
- TGI [40]: > 100 µM
- TGI [41]: > 100 µM
- TGI [42]: > 100 µM
- TGI [43]: > 100 µM
- TGI [44]: > 100 µM
- TGI [45]: > 100 µM
- TGI [57]: > 100 µM
- TGI [46]: > 100 µM
- TGI [47]: > 100 µM
- TGI [48]: > 100 µM
- TGI [49]: > 100 µM
- TGI [50]: > 100 µM
- TGI [51]: > 100 µM

Structure (SMILES): CCCCCC(/C=C/[C@@H]1[C@H]2CC(=O)O[C@H]2C[C@H]1N1CCOCC1)OC1CCCO1 (stereo partly specified)
- TGI [1]: > 100 µM
- TGI [2]: > 100 µM
- TGI [52]: > 100 µM
- TGI [3]: > 100 µM
- TGI [4]: > 100 µM
- TGI [5]: > 100 µM
- TGI [6]: > 100 µM
- TGI [7]: > 100 µM
- TGI [53]: > 100 µM
- TGI [8]: > 100 µM
- TGI [9]: > 100 µM
- TGI [10]: > 100 µM
- TGI [11]: > 100 µM
- TGI [12]: > 100 µM
- TGI [13]: > 100 µM
- TGI [14]: > 100 µM
- TGI [15]: > 100 µM
- TGI [16]: > 100 µM
- TGI [17]: > 100 µM
- TGI [18]: > 100 µM
- TGI [19]: > 100 µM
- TGI [20]: > 100 µM
- TGI [21]: > 100 µM
- TGI [54]: > 100 µM
- TGI [22]: > 100 µM
- TGI [23]: > 100 µM
- TGI [24]: > 100 µM
- TGI [25]: > 100 µM
- TGI [26]: > 100 µM
- TGI [27]: > 100 µM
- TGI [28]: > 100 µM
- TGI [29]: > 100 µM
- TGI [30]: > 100 µM
- TGI [31]: > 100 µM
- TGI [32]: > 100 µM
- TGI [33]: > 100 µM
- TGI [34]: > 100 µM
- TGI [35]: > 100 µM
- TGI [55]: > 100 µM
- TGI [36]: > 100 µM
- TGI [37]: > 100 µM
- TGI [38]: > 100 µM
- TGI [56]: > 100 µM
- TGI [39]: > 100 µM
- TGI [40]: > 100 µM
- TGI [41]: > 100 µM
- TGI [43]: > 100 µM
- TGI [44]: > 100 µM
- TGI [45]: > 100 µM
- TGI [46]: > 100 µM
- TGI [47]: > 100 µM
- TGI [48]: > 100 µM
- TGI [49]: > 100 µM
- TGI [50]: > 100 µM
- TGI [51]: > 100 µM

Structure (SMILES): COC1CC(Br)(C#N)C1 (stereo unspecified)
- TGI [1]: > 100 µM
- TGI [52]: > 100 µM
- TGI [4]: > 100 µM
- TGI [6]: > 100 µM
- TGI [7]: > 100 µM
- TGI [53]: > 100 µM
- TGI [9]: > 100 µM
- TGI [10]: > 100 µM
- TGI [11]: > 100 µM
- TGI [12]: > 100 µM
- TGI [13]: > 100 µM
- TGI [14]: > 100 µM
- TGI [15]: > 100 µM
- TGI [16]: > 100 µM
- TGI [17]: > 100 µM
- TGI [18]: > 100 µM
- TGI [19]: > 100 µM
- TGI [20]: > 100 µM
- TGI [21]: > 100 µM
- TGI [23]: > 100 µM
- TGI [24]: > 100 µM
- TGI [25]: > 100 µM
- TGI [26]: > 100 µM
- TGI [28]: > 100 µM
- TGI [31]: > 100 µM
- TGI [32]: > 100 µM
- TGI [33]: > 100 µM
- TGI [34]: > 100 µM
- TGI [35]: > 100 µM
- TGI [55]: > 100 µM
- TGI [36]: > 100 µM
- TGI [37]: > 100 µM
- TGI [38]: > 100 µM
- TGI [56]: > 100 µM
- TGI [39]: > 100 µM
- TGI [40]: > 100 µM
- TGI [41]: > 100 µM
- TGI [45]: > 100 µM
- TGI [57]: > 100 µM
- TGI [47]: > 100 µM
- TGI [48]: > 100 µM
- TGI [50]: > 100 µM
- TGI [51]: > 100 µM

Structure (SMILES): CC1(C)S[C@H](c2ccccc2C(=O)O)N[C@@H]1CC(=O)O
- TGI [1]: > 100 µM
- TGI [2]: > 100 µM
- TGI [52]: > 100 µM
- TGI [3]: > 100 µM
- TGI [5]: > 100 µM
- TGI [6]: > 100 µM
- TGI [7]: > 100 µM
- TGI [53]: > 100 µM
- TGI [8]: > 100 µM
- TGI [9]: > 100 µM
- TGI [11]: > 100 µM
- TGI [12]: > 100 µM
- TGI [13]: > 100 µM
- TGI [14]: > 100 µM
- TGI [15]: > 100 µM
- TGI [17]: > 100 µM
- TGI [18]: > 100 µM
- TGI [19]: > 100 µM
- TGI [20]: > 100 µM
- TGI [54]: > 100 µM
- TGI [22]: > 100 µM
- TGI [23]: > 100 µM
- TGI [24]: > 100 µM
- TGI [26]: > 100 µM
- TGI [27]: > 100 µM
- TGI [28]: > 100 µM
- TGI [29]: > 100 µM
- TGI [30]: > 100 µM
- TGI [32]: > 100 µM
- TGI [34]: > 100 µM
- TGI [35]: > 100 µM
- TGI [55]: > 100 µM
- TGI [36]: > 100 µM
- TGI [37]: > 100 µM
- TGI [38]: > 100 µM
- TGI [39]: > 100 µM
- TGI [40]: > 100 µM
- TGI [42]: > 100 µM
- TGI [43]: > 100 µM
- TGI [44]: > 100 µM
- TGI [45]: > 100 µM
- TGI [57]: > 100 µM
- TGI [46]: > 100 µM
- TGI [48]: > 100 µM
- TGI [49]: > 100 µM
- TGI [50]: > 100 µM

— PubChem BioAssay (NCI)
